Laboratory results from ChEMBL document CHEMBL5352433, “Design, synthesis, and biological evaluation of low-toxic lappaconitine derivatives as potential analgesics” (Eur J Med Chem, 2022).

System: Mus musculus
Assay: Analgesic activity against acetic acid-induced Kunming writhing mouse model assessed as inhibition of writhing at 10 mg/kg, sc pretreated with compound for 15 mins followed by acetic acid addition and measured after 15 mins relative to control
Type: functional
Conditions: 0.5 h, time 30 min

Row | SMILES | inhibition in vivo at 10 mg/kg [%]
1 | CCN1C[C@]2(OC(=O)c3ccccc3NS(=O)(=O)c3ccccc3[N+](=O)[O-])CC[C@H](OC)[C@]34C1[C@H](C[C@H]23)[C@@]1(O)C[C@H](OC)[C@H]2C[C@@H]4[C@]1(O)[C@H]2OC | 58.5
2 | CCN1C[C@]2(OC(=O)c3ccccc3NS(=O)(=O)c3cccs3)CC[C@H](OC)[C@]34C1[C@H](C[C@H]23)[C@@]1(O)C[C@H](OC)[C@H]2C[C@@H]4[C@]1(O)[C@H]2OC | 1
3 | CCN1C[C@]2(OC(=O)c3ccccc3NS(=O)(=O)c3cccc(C(F)(F)F)c3)CC[C@H](OC)[C@]34C1[C@H](C[C@H]23)[C@@]1(O)C[C@H](OC)[C@H]2C[C@@H]4[C@]1(O)[C@H]2OC | 12.8
4 | CCN1C[C@]2(OC(=O)c3ccccc3NS(=O)(=O)c3cccc(C)c3)CC[C@H](OC)[C@]34C1[C@H](C[C@H]23)[C@@]1(O)C[C@H](OC)[C@H]2C[C@@H]4[C@]1(O)[C@H]2OC | 52.1
5 | CCN1C[C@]2(OC(=O)c3ccccc3NS(=O)(=O)c3cccc4cccnc34)CC[C@H](OC)[C@]34C1[C@H](C[C@H]23)[C@@]1(O)C[C@H](OC)[C@H]2C[C@@H]4[C@]1(O)[C@H]2OC | 42.4
6 | CCN1C[C@]2(OC(=O)c3ccccc3NS(=O)(=O)c3cc(F)c(F)cc3F)CC[C@H](OC)[C@]34C1[C@H](C[C@H]23)[C@@]1(O)C[C@H](OC)[C@H]2C[C@@H]4[C@]1(O)[C@H]2OC | 26
7 | CCN1C[C@]2(OC(=O)c3ccccc3NS(=O)(=O)c3cccnc3)CC[C@H](OC)[C@]34C1[C@H](C[C@H]23)[C@@]1(O)C[C@H](OC)[C@H]2C[C@@H]4[C@]1(O)[C@H]2OC | 32.3
8 | CCN1C[C@]2(OC(=O)c3ccccc3NS(=O)(=O)c3cccc4ccccc34)CC[C@H](OC)[C@]34C1[C@H](C[C@H]23)[C@@]1(O)C[C@H](OC)[C@H]2C[C@@H]4[C@]1(O)[C@H]2OC | 49.3
9 | CCN1C[C@]2(OC(=O)c3ccccc3NS(=O)(=O)c3ccc(Br)cc3)CC[C@H](OC)[C@]34C1[C@H](C[C@H]23)[C@@]1(O)C[C@H](OC)[C@H]2C[C@@H]4[C@]1(O)[C@H]2OC | 11.4
10 | CCN1C[C@]2(OC(=O)c3ccccc3NS(=O)(=O)Cc3ccc([N+](=O)[O-])cc3)CC[C@H](OC)[C@]34C1[C@H](C[C@H]23)[C@@]1(O)C[C@H](OC)[C@H]2C[C@@H]4[C@]1(O)[C@H]2OC | 42.4
11 | CCN1C[C@]2(OC(=O)c3ccccc3NS(=O)(=O)c3cccc([N+](=O)[O-])c3)CC[C@H](OC)[C@]34C1[C@H](C[C@H]23)[C@@]1(O)C[C@H](OC)[C@H]2C[C@@H]4[C@]1(O)[C@H]2OC | 6.7
12 | CCN1C[C@]2(OC(=O)c3ccccc3NS(=O)(=O)c3ccc(Cl)s3)CC[C@H](OC)[C@]34C1[C@H](C[C@H]23)[C@@]1(O)C[C@H](OC)[C@H]2C[C@@H]4[C@]1(O)[C@H]2OC | 31.3
13 | CCN1C[C@]2(OC(=O)c3ccccc3NS(=O)(=O)c3cc(OC)ccc3OC)CC[C@H](OC)[C@]34C1[C@H](C[C@H]23)[C@@]1(O)C[C@H](OC)[C@H]2C[C@@H]4[C@]1(O)[C@H]2OC | 65.8
14 | CCN1C[C@]2(OC(=O)c3ccccc3NS(=O)(=O)c3c(C)cc(C)cc3C)CC[C@H](OC)[C@]34C1[C@H](C[C@H]23)[C@@]1(O)C[C@H](OC)[C@H]2C[C@@H]4[C@]1(O)[C@H]2OC | 52.1
15 | CCN1C[C@]2(OC(=O)c3ccccc3NS(=O)(=O)c3ccccc3Br)CC[C@H](OC)[C@]34C1[C@H](C[C@H]23)[C@@]1(O)C[C@H](OC)[C@H]2C[C@@H]4[C@]1(O)[C@H]2OC | 24.7
16 | CCN1C[C@]2(OC(=O)c3ccccc3NS(=O)(=O)c3ccccc3Cl)CC[C@H](OC)[C@]34C1[C@H](C[C@H]23)[C@@]1(O)C[C@H](OC)[C@H]2C[C@@H]4[C@]1(O)[C@H]2OC | 64.3
17 | CCN1C[C@]2(OC(=O)c3ccccc3NS(=O)(=O)c3cccc(F)c3)CC[C@H](OC)[C@]34C1[C@H](C[C@H]23)[C@@]1(O)C[C@H](OC)[C@H]2C[C@@H]4[C@]1(O)[C@H]2OC | 50.2
18 | CCN1C[C@]2(OC(=O)c3ccccc3NS(=O)(=O)c3ccc(OC)cc3OC)CC[C@H](OC)[C@]34C1[C@H](C[C@H]23)[C@@]1(O)C[C@H](OC)[C@H]2C[C@@H]4[C@]1(O)[C@H]2OC | 34.9
19 | CCN1C[C@]2(OC(=O)c3ccccc3NS(=O)(=O)c3ccc(F)cc3F)CC[C@H](OC)[C@]34C1[C@H](C[C@H]23)[C@@]1(O)C[C@H](OC)[C@H]2C[C@@H]4[C@]1(O)[C@H]2OC | 27.2
20 | CCN1C[C@]2(OC(=O)c3ccccc3NS(=O)(=O)c3cccc4c(N(C)C)cccc34)CC[C@H](OC)[C@]34C1[C@H](C[C@H]23)[C@@]1(O)C[C@H](OC)[C@H]2C[C@@H]4[C@]1(O)[C@H]2OC | 42.5

Row | SMILES | inhibition in vivo at 10 mg/kg [%]
21 | CCN1C[C@]2(OC(=O)c3ccccc3NS(=O)(=O)c3cccc(Br)c3)CC[C@H](OC)[C@]34C1[C@H](C[C@H]23)[C@@]1(O)C[C@H](OC)[C@H]2C[C@@H]4[C@]1(O)[C@H]2OC | 13
22 | CCN1C[C@]2(OC(=O)c3ccccc3NS(=O)(=O)c3cc(Cl)ccc3OC)CC[C@H](OC)[C@]34C1[C@H](C[C@H]23)[C@@]1(O)C[C@H](OC)[C@H]2C[C@@H]4[C@]1(O)[C@H]2OC | 43.2
23 | CCN1C[C@]2(OC(=O)c3ccccc3NS(=O)(=O)c3ccc(OC)cc3)CC[C@H](OC)[C@]34C1[C@H](C[C@H]23)[C@@]1(O)C[C@H](OC)[C@H]2C[C@@H]4[C@]1(O)[C@H]2OC | 16.8
24 | CCN1C[C@]2(OC(=O)c3ccccc3NS(=O)(=O)c3ccc(OC)c(OC)c3)CC[C@H](OC)[C@]34C1[C@H](C[C@H]23)[C@@]1(O)C[C@H](OC)[C@H]2C[C@@H]4[C@]1(O)[C@H]2OC | 13.7
25 | CCN1C[C@]2(OC(=O)c3ccccc3NS(=O)(=O)c3ccccc3F)CC[C@H](OC)[C@]34C1[C@H](C[C@H]23)[C@@]1(O)C[C@H](OC)[C@H]2C[C@@H]4[C@]1(O)[C@H]2OC | 60.3
26 | CCN1C[C@]2(OC(=O)c3ccccc3NS(=O)(=O)c3ccc(N(C)C)cc3)CC[C@H](OC)[C@]34C1[C@H](C[C@H]23)[C@@]1(O)C[C@H](OC)[C@H]2C[C@@H]4[C@]1(O)[C@H]2OC | 23
27 | CCN1C[C@]2(OC(=O)c3ccccc3NS(=O)(=O)c3ccc(C)cc3)CC[C@H](OC)[C@]34C1[C@H](C[C@H]23)[C@@]1(O)C[C@H](OC)[C@H]2C[C@@H]4[C@]1(O)[C@H]2OC | 27.7
28 | CCN1C[C@]2(OC(=O)c3ccccc3NS(=O)(=O)c3ccccc3C#N)CC[C@H](OC)[C@]34C1[C@H](C[C@H]23)[C@@]1(O)C[C@H](OC)[C@H]2C[C@@H]4[C@]1(O)[C@H]2OC | 53.9
29 | CCN1C[C@]2(OC(=O)c3ccccc3NS(=O)(=O)c3cccc(C#N)c3)CC[C@H](OC)[C@]34C1[C@H](C[C@H]23)[C@@]1(O)C[C@H](OC)[C@H]2C[C@@H]4[C@]1(O)[C@H]2OC | 47.4
30 | CCN1C[C@]2(OC(=O)c3ccccc3NS(=O)(=O)c3ccc(C(F)(F)F)cc3)CC[C@H](OC)[C@]34C1[C@H](C[C@H]23)[C@@]1(O)C[C@H](OC)[C@H]2C[C@@H]4[C@]1(O)[C@H]2OC | 19.4
31 | CCN1C[C@]2(OC(=O)c3ccccc3NS(=O)(=O)c3ccc(C#N)cc3)CC[C@H](OC)[C@]34C1[C@H](C[C@H]23)[C@@]1(O)C[C@H](OC)[C@H]2C[C@@H]4[C@]1(O)[C@H]2OC | 21.4
32 | CCN1C[C@]2(OC(=O)c3ccccc3NS(=O)(=O)Cc3ccccc3)CC[C@H](OC)[C@]34C1[C@H](C[C@H]23)[C@@]1(O)C[C@H](OC)[C@H]2C[C@@H]4[C@]1(O)[C@H]2OC | 43.8
33 | CCN1C[C@]2(OC(=O)c3ccccc3NS(=O)(=O)c3ccc(-c4ccccc4)cc3)CC[C@H](OC)[C@]34C1[C@H](C[C@H]23)[C@@]1(O)C[C@H](OC)[C@H]2C[C@@H]4[C@]1(O)[C@H]2OC | 16.1
34 | CCN1C[C@]2(OC(=O)c3ccccc3NS(=O)(=O)c3ccccc3C(F)(F)F)CC[C@H](OC)[C@]34C1[C@H](C[C@H]23)[C@@]1(O)C[C@H](OC)[C@H]2C[C@@H]4[C@]1(O)[C@H]2OC | 55.2
35 | CCN1C[C@]2(OC(=O)c3ccccc3NS(=O)(=O)c3cccc(OC)c3)CC[C@H](OC)[C@]34C1[C@H](C[C@H]23)[C@@]1(O)C[C@H](OC)[C@H]2C[C@@H]4[C@]1(O)[C@H]2OC | 37.1
36 | CCN1C[C@]2(OC(=O)c3ccccc3NS(=O)(=O)c3cc(F)cc(F)c3)CC[C@H](OC)[C@]34C1[C@H](C[C@H]23)[C@@]1(O)C[C@H](OC)[C@H]2C[C@@H]4[C@]1(O)[C@H]2OC | 37.5
37 | CCN1C[C@]2(OC(=O)c3ccccc3NS(=O)(=O)c3cccc(Cl)c3)CC[C@H](OC)[C@]34C1[C@H](C[C@H]23)[C@@]1(O)C[C@H](OC)[C@H]2C[C@@H]4[C@]1(O)[C@H]2OC | 33.1
38 | CCN1C[C@]2(OC(=O)c3ccccc3NS(=O)(=O)c3ccc(F)c(F)c3)CC[C@H](OC)[C@]34C1[C@H](C[C@H]23)[C@@]1(O)C[C@H](OC)[C@H]2C[C@@H]4[C@]1(O)[C@H]2OC | 28.3
39 | CCN1C[C@]2(OC(=O)c3ccccc3NS(=O)(=O)c3cc(F)ccc3F)CC[C@H](OC)[C@]34C1[C@H](C[C@H]23)[C@@]1(O)C[C@H](OC)[C@H]2C[C@@H]4[C@]1(O)[C@H]2OC | 45.1
